Reference: patent US20260022142A1, “MACROCYCLIC IMMUNOMODULATORS” (Bristol-Myers Squibb Company, priority 2022, published 2026)
Numbered stars: 1 amine (or outer) side, 2 acyl side, 3 side chain; on linkers, the order of the positions; unused ones are H or OH. Bridge positions count the residues as written; N and C are the ends. Square brackets hold non-standard residues; d marks the D form. Peptide text beside a SMILES is read from it. * marks the point of attachment. ξ: configuration not given here. Phe(3-CF3) = N[C@@H](Cc1cccc(C(F)(F)F)c1)C(=O)O; Phe(4-COOH) = N[C@@H](Cc1ccc(C(=O)O)cc1)C(=O)O; Bip = N[C@@H](Cc1ccc(-c2ccccc2)cc1)C(=O)O; d(βAsp) = O=C(O)[C@@H](CC(=O)[*:2])N[*:1]; NH(CH2)14COOH = O=C(O)CCCCCCCCCCCCCCN*; Phe(3-Me) = Cc1cccc(C[C@H](N)C(=O)O)c1; NH(CH2)12COOH = O=C(O)CCCCCCCCCCCCN*; Val(3-OH) = CC(C)(O)[C@H](N)C(=O)O; Cha = N[C@@H](CC1CCCCC1)C(=O)O; Thr(3ξ) = CC(O)[C@H](N)C(=O)O; Carboxymethyl = O=C(O)C*; Orn = NCCC[C@H](N)C(=O)O; Dab = NCC[C@H](N)C(=O)O; AEEA = NCCOCCOCC(=O)O; ξC = NC(CS)C(=O)O

Target: T1, PD-1/PD-L1 interaction (PE-labeled human PD-L1-Ig binding to Jurkat cell line over-expressing human PD-1) (Homo sapiens, UniProt Q15116)
T1 construct: expressed in transfected cells; host or cells: Jurkat
Assay: Jurkat-PD-1 Cell Binding High-Content Screening Assay (CBA)
Assay type: cell-based
Conditions: Jurkat cell line over-expressing human PD-1; PE-labeled PD-L1-Ig 20 nM final; read-out: Jurkat hPD1-PDL1 IC50
Summary of the method: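 Binding of fluorescent PD-L1-Ig (20 nM final) to Jurkat-PD-1 cells was measured by automated imaging after 1 h, following a 2 h compound pre-treatment at 37° C.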

T1 sequence (Q15116 25-288): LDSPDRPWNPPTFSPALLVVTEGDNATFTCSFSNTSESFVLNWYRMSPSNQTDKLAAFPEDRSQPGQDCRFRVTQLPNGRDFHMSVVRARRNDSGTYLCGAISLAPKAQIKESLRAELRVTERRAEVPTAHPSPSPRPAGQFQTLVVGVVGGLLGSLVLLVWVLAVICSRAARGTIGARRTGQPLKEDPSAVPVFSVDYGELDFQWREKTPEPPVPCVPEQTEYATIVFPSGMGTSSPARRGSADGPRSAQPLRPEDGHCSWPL

Point of comparison: `CC(=O)NCCCC[C@@H]1NC(=O)[C@H](C(C)(C)O)NC(=O)[C@H](CC2CCCCC2)NC(=O)[C@H](CCN)NC(=O)[C@@H](CC(C)C)NC(=O)[C@H](CCCN)NC(=O)[C@H](CCC(N)=O)NC(=O)[C@H](Cc2ccc(-c3ccccc3)cc2)NC(=O)[C@H](Cc2ccc(OCC(=O)O)cc2)NC(=O)[C@H](Cc2cccc(C(F)(F)F)c2)NC(=O)[C@H](CC(=O)O)NC(=O)[C@H](Cc2ccc(OCC(=O)O)cc2)NC(=O)[C@H](Cc2ccc(OCC(=O)O)cc2)NC(=O)CSC[C@@H](C(=O)N[C@@H](CCN)C(=O)NCCCCCCCCCCCCCCC(=O)O)NC1=O` [Compound 3875] ({CH2CO}-Y(Carboxymethyl)Y(Carboxymethyl)D[Phe(3-CF3)]Y(Carboxymethyl)[Bip]Q[Orn][dL][Dab][Cha][Val(3-OH)]K(Ac)C[Dab]-{NH(CH2)14COOH}; thioether N-14), IC50 0.147 µM. Against it:
- Cc1cccc(C[C@@H]2NC(=O)[C@H](CC(=O)O)NC(=O)[C@H](Cc3ccc(OCC(=O)O)cc3)NC(=O)[C@H](CC(C)C)NC(=O)CSC[C@@H](C(=O)N[C@@H](CCN)C(=O)NCCOCCOCC(=O)N[C@H](CC(=O)NCCOCCOCC(=O)NCCCCCCCCCCCCC(=O)O)C(=O)O)NC(=O)[C@H](CCC(=O)O)NC(=O)[C@H](C(C)(C)O)NC(=O)[C@H](CC3CCCCC3)NC(=O)[C@H](CCN)NC(=O)[C@@H](CC(C)C)NC(=O)[C@H](CCCN)NC(=O)[C@H](Cc3ccc(OCC(=O)O)cc3)NC(=O)[C@H](Cc3ccc(-c4ccccc4)cc3)NC(=O)[C@H](Cc3ccc(OCC(=O)O)cc3)NC2=O)c1 [Compound 3877] ({CH2CO}-LY(Carboxymethyl)D[Phe(3-Me)]Y(Carboxymethyl)[Bip]Y(Carboxymethyl)[Orn][dL][Dab][Cha][Val(3-OH)]EC[Dab][AEEA][d(βAsp)][AEEA]-{NH(CH2)12COOH}; thioether N-14) — 5.6-fold lower, 0.0263 µM
- CC(=O)NCCCC[C@@H]1NC(=O)[C@H](C(C)(C)O)NC(=O)[C@H](CC2CCCCC2)NC(=O)[C@H](CCN)NC(=O)[C@@H](CC(C)C)NC(=O)[C@H](CCCN)NC(=O)[C@H](CCC(N)=O)NC(=O)[C@H](Cc2ccc(-c3ccccc3)cc2)NC(=O)[C@H](Cc2ccc(C(=O)O)cc2)NC(=O)[C@H](Cc2cccc(C(F)(F)F)c2)NC(=O)[C@H](CC(=O)O)NC(=O)[C@H](Cc2ccc(OCC(=O)O)cc2)NC(=O)[C@H](Cc2ccc(OCC(=O)O)cc2)NC(=O)CSC[C@@H](C(=O)N[C@@H](CCN)C(=O)NCCCCCCCCCCCCC(=O)O)NC1=O [Compound 3881] ({CH2CO}-Y(Carboxymethyl)Y(Carboxymethyl)D[Phe(3-CF3)][Phe(4-COOH)][Bip]Q[Orn][dL][Dab][Cha][Val(3-OH)]K(Ac)C[Dab]-{NH(CH2)12COOH}; thioether N-14) — 6-fold lower, 0.0245 µM
- Cc1cccc(C[C@@H]2NC(=O)[C@H](CC(=O)O)NC(=O)[C@H](Cc3ccc(OCC(=O)O)cc3)NC(=O)[C@H](C(C)O)NC(=O)CSCC(C(=O)N[C@@H](CCN)C(=O)NCCCCCCCCCCCCC(=O)O)NC(=O)[C@H](CO)NC(=O)[C@H](C(C)(C)O)NC(=O)[C@H](CC3CCCCC3)NC(=O)[C@H](CCN)NC(=O)[C@@H](CC(C)C)NC(=O)[C@H](CCCN)NC(=O)[C@H](CCCNC(=N)N)NC(=O)[C@H](Cc3ccc(-c4ccccc4)cc3)NC(=O)[C@H](Cc3ccc(O)cc3)NC2=O)c1 (stereo partly drawn) [Compound 3882] ({CH2CO}-[Thr(3ξ)]Y(Carboxymethyl)D[Phe(3-Me)]Y[Bip]R[Orn][dL][Dab][Cha][Val(3-OH)]S[ξC][Dab]-{NH(CH2)12COOH}; thioether N-14) — 5.5-fold lower, 0.0268 µM
